Blank lines part the entries; values can stand above or below the molecule they belong to.
Structure (SMILES): CC(C)OC1OC2OC3(C)CCC4C(C)CCC(C1C)C24OO3 (centres undefined)
logP: 3.49

Structure (SMILES): CCCC(=O)OC1OC2OC3(C)CCC4C(C)CCC(C1C)C24OO3 (centres undefined)
logP: 2.99

Structure (SMILES): CC1CCC2C(C)C(OCc3ccccc3)OC3OC4(C)CCC1C32OO4 (centres undefined)
logP: 4.2

Structure (SMILES): CCC(=O)OC1OC2OC3(C)CCC4C(C)CCC(C1C)C24OO3 (centres undefined)
logP: 2.33

logP: 2.86
Structure (SMILES): CO[C@@H]1O[C@@H]2O[C@@]3(C)CC[C@H]4[C@H](C)CC[C@@H]([C@H]1C)[C@@]24OO3 (relative stereo)

Structure (SMILES): CC(=O)OC1OC2OC3(C)CCC4C(C)CCC(C1C)C24OO3 (centres undefined)
logP: 2.08

Structure (SMILES): CCO[C@H]1O[C@@H]2O[C@@]3(C)CC[C@H]4[C@H](C)CC[C@@H]([C@H]1C)[C@@]24OO3
logP: 3.29

Structure (SMILES): CCOC(=O)OC1OC2OC3(C)CCC4C(C)CCC(C1C)C24OO3 (centres undefined)
logP: 2.37

Structure (SMILES): CC1CCC2C(C)C(OC(=O)Oc3ccccc3)OC3OC4(C)CCC1C32OO4 (centres undefined)
logP: 3.38

Structure (SMILES): CCCOC1OC2OC3(C)CCC4C(C)CCC(C1C)C24OO3 (centres undefined)
logP: 3.65

Structure (SMILES): CC1CCC2C(C)C(OC(=O)C=Cc3ccccc3)OC3OC4(C)CCC1C32OO4 (centres undefined)
logP: 3.83

Structure (SMILES): COCCOCCOC1OC2OC3(C)CCC4C(C)CCC(C1C)C24OO3 (centres undefined)
logP: 3.51

Structure (SMILES): CC(C)CCOC1OC2OC3(C)CCC4C(C)CCC(C1C)C24OO3 (centres undefined)
logP: 4.07

Structure (SMILES): CCCOC(=O)OC1OC2OC3(C)CCC4C(C)CCC(C1C)C24OO3 (centres undefined)
logP: 3.11
